The source of these data is patent US20110294810A1, “SUBSTITUTED (PYRIDYL)-AZINYLAMINE DERIVATIVES AS PLANT PROTECTION AGENTS” (priority 2008, published 2011).

One data set in a line: Measurement of logP values by HPLC on reversed phase columns (EEC directive 79/831 Annex V.A8). Type of data set: physicochemical. The note with it: HPLC on reversed phase columns; usually LC-MS at pH 2.7 with 0.1% formic acid in water and acetonitrile, linear gradient 10% to 95% acetonitrile.
`C#CCN(C)Cc1cc(-c2ccnc(Nc3cccc(Cl)c3)n2)ccn1` [Example A39]: the log p was determined as 1.75.

Take `CN(Cc1cc(-c2ccnc(Nc3cccc(Cl)c3)n2)ccn1)CC1OCCO1` [Compound A44]: the log p stood at 1.79.

`CC1(C)CCCN(Cc2cc(-c3ccnc(Nc4cccc(Cl)c4)n3)ccn2)C1` [Compound A45] showed a log p of 2.1.

Take `CN(Cc1cc(-c2ccnc(Nc3cccc(Cl)c3)n2)ccn1)CC1CC1` [Example A40]: the log p is 1.84.

Molecule `CN(C)C1CCN(Cc2cc(-c3ccnc(Nc4cccc(Cl)c4)n3)ccn2)CC1` [Example A56] gave a log p of 1.1.

In turn, `CN(C)CCN(C)Cc1cc(-c2ccnc(Nc3cccc(Cl)c3)n2)ccn1` [Compound A58] showed a log p of 1.44.

Regarding `CCOC(=O)C1CCCN(Cc2cc(-c3ccnc(Nc4cccc(Cl)c4)n3)ccn2)C1` (centres unmarked) [Example A57], the log p is 1.98.

In turn, `CCCCN(C)Cc1cc(-c2ccnc(Nc3cccc(Cl)c3)n2)ccn1` [Compound A38] gave a log p of 1.97.

As for `CC1CCCN1Cc1cc(-c2ccnc(Nc3cccc(Cl)c3)n2)ccn1` (centres unmarked) [Compound A46], the log p was determined as 1.76.

As to `Clc1cccc(Nc2nccc(-c3ccnc(CN4CCCC4)c3)n2)c1` [Example A47], the log p turned out to be 1.7.

Regarding `CCC(C)N(C)Cc1cc(-c2ccnc(Nc3cccc(Cl)c3)n2)ccn1` (centres unmarked) [Compound A61], the log p is listed as 1.88.

Consider `CSCc1cc(-c2ccnc(Nc3cccc(Cl)c3)n2)ccn1` [Example A67], for which the log p amounted to 3.17.

`C=CCN(C)Cc1cc(-c2ccnc(Nc3cccc(Cl)c3)n2)ccn1` [Compound A59]: the log p was found to be 1.75.

`CC(C)CN(C)Cc1cc(-c2ccnc(Nc3cccc(Cl)c3)n2)ccn1` [Compound A60] came in with a log p of 1.93.

The data set is the same for the next values; noted with them: pH 2.7.
As to `CC(C)(C)CCSCc1cc(-c2ccnc(Nc3cccc(Cl)c3)n2)ccn1` [Example A78], the log p came out at 5.34.

`CCC(C)CSCc1cc(-c2ccnc(Nc3cccc(Cl)c3)n2)ccn1` (centres unmarked) [Compound A77] came in with a log p of 5.

Molecule `CCN(C)Cc1cc(-c2ccnc(Nc3cccc(Cl)c3)n2)ccn1` [Compound A52] had a log p of 1.66.

On to `CCCCC(=O)OCc1cc(-c2ccnc(N(C(=O)CCCC)c3cccc(Cl)c3)n2)ccn1` [Example A29], for which the log p was determined as 4.65.

With `COCCOCCSCc1cc(-c2ccnc(Nc3cccc(Cl)c3)n2)ccn1` [Compound A73], the log p stood at 3.11.

In turn, `CC(C)CSCc1cc(-c2ccnc(Nc3cccc(Cl)c3)n2)ccn1` [Compound A84] displayed a log p of 4.54.

The molecule `CCCCSCc1cc(-c2ccnc(Nc3cccc(Cl)c3)n2)ccn1` [Compound A71] came in with a log p of 4.56.

On to `CC(NC(=O)C1CC1)c1cc(-c2ccnc(Nc3cccc(Cl)c3)n2)ccn1` (centres unmarked) [Compound A93], for which the log p is on record as 2.64.

`O=C(OCc1cc(-c2ccnc(Nc3cccc(Cl)c3)n2)ccn1)C1CCCC1` [Compound A36] had a log p of 4.41.

`CC1CC(C)CN(Cc2cc(-c3ccnc(Nc4cccc(Cl)c4)n3)ccn2)C1` (centres unmarked) [Example A48] gave a log p of 2.1.

As to `O=C(OCc1cc(-c2ccnc(N(C(=O)C3CCCC3)c3cccc(Cl)c3)n2)ccn1)C1CCCC1` [Example A35], the log p was 4.86.

Turning to `C=C(C)C(=O)NCc1cc(-c2ccnc(Nc3cccc(Cl)c3)n2)ccn1` [Example A8], the log p came to 2.6.

`CN(C)CCSCc1cc(-c2ccnc(Nc3cccc(Cl)c3)n2)ccn1` [Example A82]: the log p was determined as 1.75.

`CC(C)(C)C(=O)NCc1cc(-c2ccnc(Nc3cccc(Cl)c3)n2)ccn1` [Compound A13]: the log p came to 2.88.

`N#CCCCCSCc1cc(-c2ccnc(Nc3cccc(Cl)c3)n2)ccn1` [Compound A76] gave a log p of 3.35.

For `CN(Cc1cc(-c2ccnc(Nc3cccc(Cl)c3)n2)ccn1)C(C)(C)C` [Example A43], the log p is given as 1.84.

`COCC(=S)NCc1cc(-c2ccnc(Nc3cccc(Cl)c3)n2)ccn1` [Compound A16] came in with a log p of 3.29.

For the molecule `CCCC(=O)OCc1cc(-c2ccnc(Nc3cccc(Cl)c3)n2)ccn1` [Example A20], the log p worked out at 3.83.

With `CCCSCc1cc(-c2ccnc(Nc3cccc(Cl)c3)n2)ccn1` [Compound A70], the log p worked out at 3.48.

Molecule `O=C(NCc1cc(-c2ccnc(Nc3cccc(Cl)c3)n2)ccn1)C1CC1` [Compound A12] showed a log p of 2.39.

For `FC(F)(F)CSCc1cc(-c2ccnc(Nc3cccc(Cl)c3)n2)ccn1` [Example A79], the log p turned out to be 4.01.

With `CC(C)C(=O)NCc1cc(-c2ccnc(Nc3cccc(Cl)c3)n2)ccn1` [Compound A2, N-[(4-{2-[(3-chlorophenyl)amino]pyrimidin-4-yl}pyridin-2-yl)methyl]-2-methyl propanamide], the log p was determined as 2.52.

The molecule `CCSCCNCc1cc(-c2ccnc(Nc3cccc(Cl)c3)n2)ccn1` [Example A66] showed a log p of 2.1.

With `CCCN(C)Cc1cc(-c2ccnc(Nc3cccc(Cl)c3)n2)ccn1` [Compound A65], the log p turned out to be 1.81.

Molecule `Clc1cccc(Nc2nccc(-c3ccnc(CI)c3)n2)c1` [Example A68] registered a log p of 3.73.

On to `COCC(=O)NCc1cc(-c2ccnc(Nc3cccc(Cl)c3)n2)ccn1` [Example A11], for which the log p was 2.33.

`CC(C)CC(=O)OCc1cc(-c2ccnc(Nc3cccc(Cl)c3)n2)ccn1` [Compound A21] showed a log p of 4.26.

As for `CC(C)CC(=O)NCc1cc(-c2ccnc(Nc3cccc(Cl)c3)n2)ccn1` [Compound A9], the log p is given as 2.84.

Consider `Clc1cccc(Nc2nccc(-c3ccnc(CN4CC=CC4)c3)n2)c1` [Compound A49], for which the log p worked out at 1.67.

In turn, `CCCCCC(=O)OCc1cc(-c2ccnc(Nc3cccc(Cl)c3)n2)ccn1` [Compound A19] displayed a log p of 4.73.

In turn, `CCCCC(=O)OCc1cc(-c2ccnc(Nc3cccc(Cl)c3)n2)ccn1` [Example A23] yielded a log p of 4.29.

As to `CC(C)(C)C(=O)OCc1cc(-c2ccnc(Nc3cccc(Cl)c3)n2)ccn1` [Example A24], the log p is 4.31.

On to `CN(CCC#N)Cc1cc(-c2ccnc(Nc3cccc(Cl)c3)n2)ccn1` [Compound A64], for which the log p came out at 1.74.

`CC(C)=CC(=O)NCc1cc(-c2ccnc(Nc3cccc(Cl)c3)n2)ccn1` [Compound A10] came in with a log p of 2.75.

As to `CC(C)=CC(=O)OCc1cc(-c2ccnc(Nc3cccc(Cl)c3)n2)ccn1` [Compound A89], the log p turned out to be 4.01.

Consider `COCC(=O)NC(C)c1cc(-c2ccnc(N(C(=O)COC)c3cccc(Cl)c3)n2)ccn1` (centres unmarked) [Compound A81], for which the log p is 2.11.

Consider `CC(C)N(C)Cc1cc(-c2ccnc(Nc3cccc(Cl)c3)n2)ccn1` [Example A42], for which the log p was 1.79.

For `C=C(C)CC(=O)OCc1cc(-c2ccnc(Nc3cccc(Cl)c3)n2)ccn1` [Compound A88], the log p is reported as 3.92.

Consider `Clc1cccc(Nc2nccc(-c3ccnc(CN4CCSCC4)c3)n2)c1` [Example A55], for which the log p is given as 1.78.

In turn, `N#CCc1cc(-c2ccnc(Nc3cccc(Cl)c3)n2)ccn1` [Compound A94] gave a log p of 2.94.

`C=COC(=O)NCc1cc(-c2ncnc(Nc3cccc(Cl)c3)n2)ccn1` [Compound C5]: the log p is on record as 2.84.

In turn, `CC(C)C(=O)OCc1cc(-c2ccnc(N(C(=O)C(C)C)c3cccc(Cl)c3)n2)ccn1` [Example A32] gave a log p of 3.83.

In turn, `CC(C)(C)OC(=O)NCc1cc(-c2ncnc(Nc3cccc(Cl)c3)n2)ccn1` [Compound C1] gave a log p of 3.1.

For the molecule `Clc1cccc(Nc2nccc(-c3ccnc(CN4CCOCC4)c3)n2)c1` [Example A50], the log p came out at 1.6.

Molecule `O=C(NCc1cc(-c2ccnc(Nc3cccc(Cl)c3)n2)ccn1)C1CCC1` [Compound A7] displayed a log p of 2.69.

As to `CC(C)(C)C(=O)OCc1cc(-c2ccnc(N(C(=O)C(C)(C)C)c3cccc(Cl)c3)n2)ccn1` [Example A30], the log p amounted to 4.7.

`CC(c1cc(-c2ccnc(N(C(=O)C3CC3)c3cccc(Cl)c3)n2)ccn1)N(C(=O)C1CC1)C(=O)C1CC1` (centres unmarked) [Compound A91] gave a log p of 3.71.

For `CCN(CC)Cc1cc(-c2ccnc(Nc3cccc(Cl)c3)n2)ccn1` [Compound A53], the log p is listed as 1.78.

The same data set, now with this note: reversed phase HPLC column; HPLC on reversed phase columns; usual method: LC-MS at pH 2.7, 0.1% formic acid in water / acetonitrile, linear gradient 10% to 95% acetonitrile; read-out: logP.
Take `CC(=O)OC(C)c1cc(-c2ccnc(Nc3cccc(Cl)c3)n2)ccn1` (centres unmarked) [Compound A98, 1-(4-{2-[(3-chlorophenyl)amino]pyrimidin-4-yl}pyridin-2-yl)ethyl acetate]: the chromatographic logP turned out to be 3.33.

The same data set, now with this note: reversed phase HPLC column; HPLC on reversed phase columns; usually LC-MS at pH 2.7 with 0.1% formic acid in water and acetonitrile, linear gradient 10% to 95% acetonitrile; read-out: log p.
Take `ClCc1cc(-c2ccnc(Nc3cccc(Cl)c3)n2)ccn1` [Compound A15, 4-[2-(chloromethyl)pyridin-4-yl]-N-(3-chlorophenyl)pyrimidin-2-amine]: the chromatographic logP was 3.46.

Regarding `Clc1cccc(Nc2nccc(-c3ccnc(CN4CCCCC4)c3)n2)c1` [Compound A17, N-(3-chlorophenyl)-4-[2-(piperidin-1-ylmethyl)pyridin-4-yl]pyrimidin-2-amine], the chromatographic logP came out at 1.81.

With `NCc1cc(-c2ccnc(Nc3cccc(Cl)c3)n2)ccn1` [Compound A1, 4-[2-(aminomethyl)pyridin-4-yl]-N-(3-chlorophenyl)pyrimidin-2-amine], the chromatographic logP came to 1.52.

Regarding `CCSCc1cc(-c2ccnc(Nc3cccc(Cl)c3)n2)ccn1` [Compound A69, N-(3-chlorophenyl)-4-{2-[(ethylsulfanyl)methyl]pyridin-4-yl}pyrimidin-2-amine], the chromatographic logP amounted to 3.64.

The same data set, now with this note: reversed phase HPLC column; LC-MS at pH 2.7, 0.1% formic acid in water / acetonitrile, gradient 10% to 95% acetonitrile; read-out: log p.
Regarding `CCOC(=O)NCc1cc(-c2ncnc(Nc3cccc(Cl)c3)n2)ccn1` [Compound C4, ethyl[(4-{4-[(3-chlorophenyl)amino]-1,3,5-triazin-2-yl}pyridin-2-yl)methyl]carbamate], the chromatographic logP stood at 2.64.
